From patent US20220089733A1, “NOVEL APPROACH FOR TREATMENT OF CANCER USING IMMUNOMODULATION” (BioXcel Therapeutics, Inc., priority 2018, published 2022)

Experiments:
[1] = in vivo; cited from earlier work
[2] = test system: melanoma; conditions: melanoma patients; cited from earlier work
[3] = test system: CYP3A4
[4] = molecular target: CYP2C9 (Homo sapiens, UniProt P11712)
[5] = molecular target: T1, CYP2C8 (Homo sapiens, UniProt P10632)
T1 sequence (P10632 1-490): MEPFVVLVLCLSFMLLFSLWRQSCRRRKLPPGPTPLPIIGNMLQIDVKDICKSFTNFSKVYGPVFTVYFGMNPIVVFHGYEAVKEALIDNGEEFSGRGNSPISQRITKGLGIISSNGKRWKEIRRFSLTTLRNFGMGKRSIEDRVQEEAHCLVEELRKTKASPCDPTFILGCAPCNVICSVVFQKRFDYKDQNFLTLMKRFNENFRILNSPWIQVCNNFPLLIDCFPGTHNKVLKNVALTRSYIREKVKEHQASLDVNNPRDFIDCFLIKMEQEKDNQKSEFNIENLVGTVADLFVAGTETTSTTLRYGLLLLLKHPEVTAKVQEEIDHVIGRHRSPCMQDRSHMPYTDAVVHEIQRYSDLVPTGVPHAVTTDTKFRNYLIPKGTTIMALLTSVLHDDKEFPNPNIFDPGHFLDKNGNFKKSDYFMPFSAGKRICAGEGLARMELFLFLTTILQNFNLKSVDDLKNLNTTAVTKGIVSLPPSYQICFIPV

[6] = test system: CYP1A2
[7] = molecular target: CYP3A4 (Homo sapiens, UniProt P08684)
[8] = molecular target: CYP2C19 (Homo sapiens, UniProt P33261)
[9] = molecular target: CYP1A2 (Homo sapiens, UniProt P05177); conditions: human liver CYP isoenzymes; preclinical studies
[10] = molecular target: CYP2D6 (Homo sapiens, UniProt P10635)
Chain of CYP2D6 (P10635 whole entry): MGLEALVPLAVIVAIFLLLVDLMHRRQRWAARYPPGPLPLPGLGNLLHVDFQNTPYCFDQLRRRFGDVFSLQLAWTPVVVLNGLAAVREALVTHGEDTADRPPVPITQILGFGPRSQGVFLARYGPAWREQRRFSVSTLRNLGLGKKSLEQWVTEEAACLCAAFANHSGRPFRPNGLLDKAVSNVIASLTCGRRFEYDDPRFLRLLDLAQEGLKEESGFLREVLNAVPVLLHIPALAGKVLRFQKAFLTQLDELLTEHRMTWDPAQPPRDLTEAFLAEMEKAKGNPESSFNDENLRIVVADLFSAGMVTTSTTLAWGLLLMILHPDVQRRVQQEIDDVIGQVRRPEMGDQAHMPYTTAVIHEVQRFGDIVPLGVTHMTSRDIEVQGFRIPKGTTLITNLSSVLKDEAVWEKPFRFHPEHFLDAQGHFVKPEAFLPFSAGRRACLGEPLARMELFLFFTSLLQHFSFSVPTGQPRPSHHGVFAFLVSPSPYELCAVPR

Chain of CYP2C19 (P33261 whole entry): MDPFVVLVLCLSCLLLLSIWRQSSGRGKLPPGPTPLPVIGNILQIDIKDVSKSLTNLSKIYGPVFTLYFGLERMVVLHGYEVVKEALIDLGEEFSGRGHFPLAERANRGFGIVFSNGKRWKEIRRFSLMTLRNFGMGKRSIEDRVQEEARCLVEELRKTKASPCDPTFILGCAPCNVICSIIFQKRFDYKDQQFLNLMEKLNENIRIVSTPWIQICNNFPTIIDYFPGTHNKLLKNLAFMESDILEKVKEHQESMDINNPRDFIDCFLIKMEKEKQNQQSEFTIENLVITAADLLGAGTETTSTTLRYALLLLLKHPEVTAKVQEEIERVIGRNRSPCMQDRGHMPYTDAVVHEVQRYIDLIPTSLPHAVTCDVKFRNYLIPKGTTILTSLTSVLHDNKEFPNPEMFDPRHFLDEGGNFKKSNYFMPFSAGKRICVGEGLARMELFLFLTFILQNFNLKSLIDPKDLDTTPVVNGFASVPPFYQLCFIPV
Chain of CYP1A2 (Homo sapiens, UniProt P05177) (P05177 whole entry): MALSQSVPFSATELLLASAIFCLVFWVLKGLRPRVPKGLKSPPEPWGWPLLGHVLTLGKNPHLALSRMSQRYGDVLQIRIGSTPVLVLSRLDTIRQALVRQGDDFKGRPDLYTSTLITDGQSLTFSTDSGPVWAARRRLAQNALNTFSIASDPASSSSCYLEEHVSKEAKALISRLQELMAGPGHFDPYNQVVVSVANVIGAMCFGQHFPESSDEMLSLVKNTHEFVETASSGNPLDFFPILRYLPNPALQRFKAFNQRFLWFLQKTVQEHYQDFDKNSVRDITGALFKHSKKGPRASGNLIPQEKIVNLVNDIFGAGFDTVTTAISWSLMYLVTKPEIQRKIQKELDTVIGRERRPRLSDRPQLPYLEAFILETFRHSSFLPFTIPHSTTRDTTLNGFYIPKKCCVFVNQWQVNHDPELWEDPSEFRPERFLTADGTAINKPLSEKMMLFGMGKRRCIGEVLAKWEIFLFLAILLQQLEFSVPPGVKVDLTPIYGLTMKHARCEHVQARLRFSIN
Chain of CYP2C9 (P11712 whole entry): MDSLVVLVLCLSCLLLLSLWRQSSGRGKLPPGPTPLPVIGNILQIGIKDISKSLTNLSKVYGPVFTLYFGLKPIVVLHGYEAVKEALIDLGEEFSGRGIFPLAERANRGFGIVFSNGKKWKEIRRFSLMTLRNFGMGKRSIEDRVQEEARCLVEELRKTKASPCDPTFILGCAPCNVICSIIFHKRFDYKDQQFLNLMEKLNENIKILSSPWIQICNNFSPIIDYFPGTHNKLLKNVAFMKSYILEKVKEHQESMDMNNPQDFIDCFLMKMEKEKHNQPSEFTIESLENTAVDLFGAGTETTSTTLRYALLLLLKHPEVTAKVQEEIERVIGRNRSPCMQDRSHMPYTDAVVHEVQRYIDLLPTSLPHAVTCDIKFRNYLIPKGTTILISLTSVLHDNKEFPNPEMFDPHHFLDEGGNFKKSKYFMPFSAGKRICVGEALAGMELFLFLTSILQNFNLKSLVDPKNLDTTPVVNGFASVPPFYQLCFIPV
Chain of CYP3A4 (Homo sapiens, UniProt P08684) (P08684 whole entry): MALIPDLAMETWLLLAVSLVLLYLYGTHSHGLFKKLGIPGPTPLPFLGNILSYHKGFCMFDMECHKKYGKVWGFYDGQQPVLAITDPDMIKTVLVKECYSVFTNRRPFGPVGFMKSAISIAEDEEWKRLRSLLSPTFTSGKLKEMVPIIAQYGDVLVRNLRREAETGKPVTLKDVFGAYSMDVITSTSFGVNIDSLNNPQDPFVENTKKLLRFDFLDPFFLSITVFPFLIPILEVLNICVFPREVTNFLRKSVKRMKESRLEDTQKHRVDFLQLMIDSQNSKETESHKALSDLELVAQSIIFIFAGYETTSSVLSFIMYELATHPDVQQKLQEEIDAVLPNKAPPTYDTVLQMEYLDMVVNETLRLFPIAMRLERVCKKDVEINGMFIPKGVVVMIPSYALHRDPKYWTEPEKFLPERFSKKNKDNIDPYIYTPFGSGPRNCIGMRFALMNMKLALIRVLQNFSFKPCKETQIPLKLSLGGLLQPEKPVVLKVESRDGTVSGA

CC(C)[C@H](N)C(=O)N1CCC[C@H]1B(O)O [Talabostat, [(2R)-1-[(2S)-2-amino-3-methylbutanoyl]pyrrolidin-2-yl]boronic acid]
Most common / most frequently observed adverse events [1]: edema/peripheral swelling, hypotension, hypovolemia, and dizziness

Ipilimumab: CTLA-4 antagonist antibody, checkpoint inhibitor
Response rate [2]: 11%

Nivolumab: PD-1 antagonist antibody, checkpoint inhibitor
Response rate [2]: 32%

Talabostat mesylate
Induction of CYP3A4 [3]: did not induce
Most common / most frequently observed adverse events [1]: edema/peripheral swelling, hypotension, dizziness, and hypovolemia
Potential to inhibit CYP2C9 [4]: low potential
Potential to inhibit CYP2C8 [5]: low potential
Induction of CYP1A2 [6]: did not induce
Potential to inhibit CYP3A4 [7]: low potential
Potential to inhibit CYP2C19 [8]: low potential
Potential to inhibit CYP1A2 [9]: low potential
Potential to inhibit CYP2D6 [10]: low potential
